Experimental data from patent US9427428B2, “Benzimidazole-imidazole derivatives” (Janssen Sciences Ireland UC, priority 2009, dated 2016).

Experiments:
[1] = test system: HCV type 1b replicon (Huh-7 luc/neo cells); experiment: HCV replicon assay, stable transfection (Huh-Luc, luciferase); assay type: cell-based; settings: Hepatitis C virus, Huh-7, 72 h, three days incubation, average of all tests
Source text: The compounds of formula (I) were examined for inhibitory activity in the HCV replicon. This cellular assay is based on a bicistronic expression construct, as described by Lohmann et al. (Science (1999) 285: 110-113; Journal of Virology (2003) 77: 3007-3019) with modifications described by Krieger et al. (Journal of Virology (2001) 75: 4614-4624), and Lohmann et al. (Journal of Virology (2003) 77: 3007-3019) for genotype 1b and by Yi et al. (Journal of Virology (2004) 78: 7904-7915) for genotype 1a, in a multi-target screening strategy.
The method was as follows. The assay utilized the stably transfected cell line Huh-7 luc/neo (hereafter referred to as Huh-Luc). This cell line harbors an RNA encoding a bicistronic expression construct comprising the wild type NS3-NS5B regions of HCV type 1b translated from an Internal Ribosome Entry Site (IRES) from encephalomyocarditis virus (EMCV), preceded by a reporter portion (FfL-luciferase), and a selectable marker portion (neoR, neomycine phosphotransferase). The construct is flanked by 5′ and 3′ NTRs (non-translated regions) from HCV type 1b. Continued culture of the replicon cells in the presence of G418 (neoR) is dependent on the replication of the HCV RNA. The stably transfected replicon cells that replicate HCV RNA autonomously and to high levels, encoding inter alia luciferase, were used for screening the antiviral compounds.
The replicon cells were plated in 384 well plates in the presence of the test and control compounds which were added in various concentrations. Following an incubation of three days, HCV replication was measured by assaying luciferase activity (using standard luciferase assay substrates and reagents and a Perkin Elmer ViewLux™ ultraHTS microplate imager). Replicon cells in the control cultures have high luciferase expression in the absence of any inhibitor. The inhibitory activity of the compound was monitored on the Huh-Luc cells, enabling a dose-response curve for each test compound. EC50 values were then calculated, which represent the amount of compound required to decrease the level of detected luciferase activity by 50%, or more specifically, to reduce the ability of the genetically linked HCV replicon RNA to replicate.
Where a compound of formula (I) was tested more than once in the replicon assay, the average of all test results is given in this Table 2.

[2] = test system: HCV genotype 1b Con1 replicon (Huh-7 lunet cells); experiment: HCV replicon assay, transient transfection, genotype 1b; assay type: cell-based; settings: Hepatitis C virus, 48 h, genotype 1b Con1, two days incubation, luciferase
Source text: (§1) In a transient set-up, a Huh-7 lunet hepatoma cell line was transiently transfected with an autonomously replicating RNA encoding a bi-cistronic expression construct. This construct comprises a firefly luciferase reporter gene preceding the NS3-NS5B subgenomic region of HCV (genotype 1a H77 or 1b Con1). Translation of the HCV subgenomic region is mediated by an internal ribosome entry site of encephalomyocarditis virus. The construct is furthermore flanked by 5′ and 3′ untranslated regions of HCV (genotype 1a H77 or 1b Con 1, respectively), which allow for replication of the RNA.
(§2) Cells were plated in 384 well plates in the presence of test and control compounds, which were added in various concentrations. Following an incubation of two days, replication of the HCV subgenomic replicon RNA was measured by assaying luciferase activity (using standard luciferase assay substrates and reagents and a Perkin Elmer ViewLux™ ultraHTS microplate imager). HCV subgenomic replicon containing cells in the control cultures have high luciferase expression in the absence of any inhibitor. The inhibitory activity of the compound was monitored, enabling a dose-response curve for each test compound. EC50 values were then calculated, which represent the amount of compound required to decrease the level of detected luciferase activity by 50%, or more specifically, to reduce the ability of the genetically linked HCV subgenomic RNA to replicate.
(§3) Where a compound of formula (I) was tested more than once in the transient replicon assay, the average of all test results is given in Table 3.

[3] = test system: HCV genotype 1a H77 replicon (Huh-7 lunet cells); experiment: HCV replicon assay, transient transfection, genotype 1a; assay type: cell-based; settings: Hepatitis C virus, 48 h, genotype 1a H77, two days incubation, luciferase
Source text: as §1, §2, §3

[4] = Counterscreen MT4-LTR-Luc; assay type: cell-based; settings: human
Source text: (§4) Counterscreen cell lines included a Huh-7 hepatoma cell line containing a human cytomegalovirus major immediate-early promoter-Luc construct (Huh7-CMV-Luc) and an MT4 T-cell line containing a long terminal repeat-Luc reporter (MT4-LTR-Luc).

[5] = Counterscreen Huh7-CMV-Luc; assay type: cell-based; settings: human
Source text: as §4

[6] = test system: HCV genotype 1b replicon NS5A L28T; experiment: Transient HCV 1b replicon, NS5A mutant L28T; assay type: cell-based; settings: Hepatitis C virus, read-out: EC50 L28T
Source text: as §1
(§5) In addition to the wild-type constructs, site-directed mutations were introduced into the transient HCV genotype 1b replicon in the gene encoding for the non-structural protein 5A (NS5A). More precisely, amino acid residues 28, 30, 31 and 93 in NS5A were independently altered.
as §2

[7] = test system: HCV genotype 1b replicon NS5A R30H; experiment: Transient HCV 1b replicon, NS5A mutant R30H; assay type: cell-based; settings: Hepatitis C virus, read-out: EC50 R30H
Source text: as §1, §5, §2

[8] = test system: HCV genotype 1b replicon NS5A L31F; experiment: Transient HCV 1b replicon, NS5A mutant L31F; assay type: cell-based; settings: Hepatitis C virus, read-out: EC50 L31F
Source text: as §1, §5, §2

[9] = test system: HCV genotype 1b replicon NS5A L31M; experiment: Transient HCV 1b replicon, NS5A mutant L31M; assay type: cell-based; settings: Hepatitis C virus, read-out: EC50 L31M
Source text: as §1, §5, §2

[10] = test system: HCV genotype 1b replicon NS5A L31V; experiment: Transient HCV 1b replicon, NS5A mutant L31V; assay type: cell-based; settings: Hepatitis C virus, read-out: EC50 L31V
Source text: as §1, §5, §2

[11] = test system: HCV genotype 1b replicon NS5A Y93H; experiment: Transient HCV 1b replicon, NS5A mutant Y93H; assay type: cell-based; settings: Hepatitis C virus, read-out: EC50 Y93H
Source text: as §1, §5, §2

[12] = test system: HCV genotype 1b replicon NS5A Y93C; experiment: Transient HCV 1b replicon, NS5A mutant Y93C; assay type: cell-based; settings: Hepatitis C virus, read-out: EC50 Y93C
Source text: as §1, §5, §2

[13] = Pharmacokinetic analysis after single oral administration, liver concentration; assay type: in vivo; settings: male Sprague-Dawley rats, 10 mg/kg oral, solution in PEG400
Experimental: Compounds were dosed orally as a solution in PEG400 to male Sprague-Dawley rats at a dose level of 10 mg/kg. At serial time points, after dosing, the animals were sacrificed and liver samples collected. All samples were analyzed using a qualified research LC-MS/MS method to determine the concentration of the tested compounds in liver. Non-compartmental analysis using the lin/log trapezoidal rule was performed using WinNonlin™ Professional (Version 5.2.1).

Compound	EC50 [1] [nM]	EC50 [2] [nM]	EC50 [3] [nM]	CC50 [4] [nM]	CC50 [5] [nM]	EC50 [6] [nM]	EC50 [7] [nM]	EC50 [8] [nM]	EC50 [9] [nM]	EC50 [10] [nM]	EC50 [11] [nM]	EC50 [12] [nM]	Liver AUC [13] [ng·h/g]
CC[C@H](C)[C@H](NC(=O)OC)C(=O)N1CCC[C@H]1c1ncc(-c2ccc3cc(-c4ccc5nc([C@@H]6CCCN6C(=O)[C@@H](NC(=O)OC)[C@@H](C)CC)[nH]c5c4)ccc3c2)[nH]1 [Compound 8]	0.003	0.005	0.204	> 984	> 984	0.206	0.116	0.016	0.258	0.311	0.587	< 0.013	50655
COC(=O)N[C@H](C(=O)N1CCC[C@H]1c1ncc(-c2ccc3cc(-c4ccc5nc([C@@H]6CCCN6C(=O)[C@@H](NC(=O)OC)[C@@H](C)OC)[nH]c5c4)ccc3c2)[nH]1)C(C)C [Compound 9]	0.007	0.007	0.03	> 984	> 984	0.081	0.045	< 0.017	0.072	0.086	0.042	< 0.013	6202
COC(=O)N[C@H](C(=O)N1CCC[C@H]1c1nc2ccc(-c3ccc4cc(-c5cnc([C@@H]6CCCN6C(=O)[C@@H](NC(=O)OC)[C@@H](C)OC)[nH]5)ccc4c3)cc2[nH]1)C(C)C [Compound 11]	0.006	0.012	0.048	> 984	> 984	0.117	0.05	0.021	0.087	0.141	0.167	< 0.013	7928
CC[C@H](C)[C@H](NC(=O)OC)C(=O)N1CCC[C@H]1c1nc2ccc(-c3ccc4cc(-c5cnc([C@@H]6CCCN6C(=O)[C@@H](NC(=O)OC)C(C)C)[nH]5)ccc4c3)cc2[nH]1 [Compound 13]	0.002	0.002	0.051	> 984	> 984	0.109	0.027	< 0.013	0.053	0.141	0.215	< 0.013	51330
CC[C@H](C)[C@H](NC(=O)OC)C(=O)N1CCC[C@H]1c1ncc(-c2ccc3cc(-c4ccc5[nH]c([C@@H]6CCCN6C(=O)[C@@H](NC(=O)OC)C(C)C)nc5c4)ccc3c2)[nH]1 [Compound 16]	0.003	0.003	0.098	> 984	> 984	0.151	0.07	0.017	0.093	0.411	0.343	< 0.013	12630
CC[C@H](C)[C@H](NC(=O)OC)C(=O)N1CCC[C@H]1c1ncc(-c2ccc3cc(-c4ccc5[nH]c([C@@H]6CCCN6C(=O)[C@@H](NC(=O)OC)[C@@H](C)OC)nc5c4)ccc3c2)[nH]1 [Compound 17]	0.005	0.005	0.049	9300	11100	0.037	0.036	0.005	0.025	0.037	0.034	0.003	4213
CC[C@H](C)[C@H](NC(=O)OC)C(=O)N1CCC[C@H]1c1nc2cc(-c3ccc4cc(-c5cnc([C@@H]6CCCN6C(=O)[C@@H](NC(=O)OC)[C@@H](C)OC)[nH]5)ccc4c3)ccc2[nH]1 [Compound 18]	0.003	0.004	0.018	9680	8680	0.041	0.039	0.005	0.054	0.052	0.08	0.003	14091
